# Data published in patent US20190192559A1, “COMBINATION OF PROTEASOME INHIBITORS AND ANTI-CD30 ANTIBODIES” (Millennium Pharmaceuticals, Inc., priority 2016, published 2019).
# How the values were obtained:
# Type in all cases: in vivo
# [1] = system: SR-786 tumor cells (CD30+ human large T cell lymphoma cell line); assay: SR-786 subcutaneous xenograft tumor efficacy model in CB17 SCID mice; details: for Average tumor volume day 21: in mm³ (unit assumed)
# Experimental: (§1) SR-786 (6.0×10^6) tumor cells in RPMI-1640 media were aseptically injected into the subcutaneous space in the right dorsal flank of CB17 SCID female mice (Charles River Lab) using a 26 G ⅝ needle. SR-786 is a CD30+ human large T cell lymphoma cell line and was obtained from DSMZ (Braunschweig, Germany).
# (§2) Brentuximab vedotin (SGN-35), one vial (Seattle Genetics, 50 mg) was reconstituted in 50 ml 0.9% saline to give a stock solution of 1 mg/ml. The stock solution was then diluted again in 0.9% saline to reach the desired concentration and administered by intraperitoneal injection (IP) on q4D schedule for 21 days (SR-786), 14 days (Karpas-299) or 24 days (SUDHL-2) at 0.2 mg/kg, 0.4 mg/kg and 0.8 mg/kg.
# (§3) The compound of formula (IIIa) was formulated in either 5% hydroxypropyl-beta-cyclodextrin (for SR-786 and Karpas-299 studies) or in 20% hydroxypropyl-beta-cyclodextrin for SUDHL-2 study. The amounts listed below in Tables 1a-3b are calculated based on the compound of formula (IV). The drug was administered by IV injection (1 cc syringe, 20-22 gauge) on BIW schedule at either 2 mg/kg or 8 mg/kg for 21 days (SR-786), 14 days (Karpas-299), or 24 days (SUDHL-2).
# (§4) Tumors were measured twice weekly using a vernier caliper. Tumor volumes were calculated using standard procedures (0.5×(length×width^2)). When the tumors reached a volume of approximately 200 mm^3 for SR-786, 150 mm^3 for Karpas-299 and SUDHL-2, mice were randomized into 7-8 groups as described in the tables below, and injected with vehicle, compound of formula (IV) or SGN-35 or the combination of compound of formula (IV) with SGN-35, at various doses as described below in Tables 1a, 2a and 3a. Tumor size and body weight were measured approximately twice a week for the duration of the study. Mice were euthanized when their tumor volume reached 10% of their body weight, or when the average tumor volume of a treatment or control group reached approximately 2000 mm^3. Tumor growth continued to be monitored after the dosing period in this study. Tumor volume on study day 21 for all groups is shown in table 1a for SR-786 study; on study day 14 for all groups for Karpas-299 study in table 2a and on study day 24 for all groups for SUDHL-2 study in table 3a. Average tumor volume is reported as a function of time for all groups in FIG. 1 (SR-786), FIG. 2 (Karpas-299) and FIG. 3 (SUDHL-2). Tumor volumes were reported till the end of the study to capture re-growth.
# (§5) The synergy analysis is based on the tumor volume data from day 0 to 21 for SR-786, days 0 to 14 for Karpas-299 and days 0 to 24 for SUDHL-2 and presented in table 1b, 2b and 3b. Volume measurements below 25 cubic mm are excluded from the analysis because very low volumes cannot be measured accurately. The remaining measurements are log transformed and fit to a simple linear model with the measurement day as a covariate. The data are fit separately for the different animals to yield an estimated tumor growth rate for each animal in each treatment group. Based on the growth rates, the synergy score for the combination of agents A and B is defined as
# (§6) 100*(mean(μAB)−mean(μA)−mean(μB)+mean(μctl))/mean(μctl):
# (§7) where μAB, μA, μB, and μctl are the mean tumor growth rates for animals in the combination group, the A group, the B group, and the control group, respectively. The standard error of the synergy score is computed based on the variation in the growth rates among the animals. […] If the P-value is above 0.05, then the combination is considered to be additive. If the P-value is below 0.05, and the synergy score is less than zero, then the combination is considered to be synergistic. […] Otherwise, the combination is classified as antagonistic.
# [2] = system: Karpas-299 tumor cells (CD30+ human large T cell lymphoma cell line); assay: Karpas-299 subcutaneous xenograft tumor efficacy model in CB17 SCID mice; details: for Average tumor volume day 14: in mm³ (unit assumed)
# Experimental: as §1, with “Karpas-299 (0.5×10^6)” for “SR-786 (6.0×10^6)”, “Rive” for “River”, “Karpas-299” for “SR-786”
# as §2, §3, §4, §5, §6, §7
# [3] = system: SUDHL-2 tumor cells (CD30+ human large cell lymphoma cell line); assay: SUDHL-2 subcutaneous xenograft tumor efficacy model in CB17-SCID mice; details: for Average tumor volume day 24: in mm³ (unit assumed)
# Experimental: SUDHL-2 (2×10^6) tumor cells in RPMI-1640 media were aseptically injected into the subcutaneous space in the right dorsal flank of CB17-SCID female mice (Shanghai SLAC Laboratory Animal Co., LTD). SUDHL-2 is a CD30+ human large cell lymphoma cell line and was obtained from ATCC (Manassas, Va.).
# as §2, §3, §4, §5, §6, §7
# [4] = compound of formula (IV) 2 mg/kg BIW IV
# [5] = compound of formula (IV) 2 mg/kg IV
# [6] = compound of formula (IV) 8 mg/kg BIW IV
# [7] = compound of formula (IV) 8 mg/kg IV
# [8] = SGN-35 0.2 mg/kg IP, compared to the control vehicle group
# [9] = SGN-35 0.4 mg/kg IP, compared to the control vehicle group
# [10] = SGN-35 0.8 mg/kg IP, compared to the control vehicle group
compound,measurement,setting,value
"CC(C)C[C@H](NC(=O)CNC(=O)c1cc(Cl)ccc1Cl)B(O)O [compound of formula (IV), [(1R)-1-({[(2,5-dichlorobenzoyl)amino]acetyl}amino)-3-methylbutyl]boronic acid]",Average tumor volume day 21,[1]; [4],1221.5
same,tumor growth inhibition,[1]; [5],10%
same,Average tumor volume day 21,[1]; [6],500.6
same,tumor growth inhibition,[1]; [7],63%
same,Average tumor volume day 14,[2]; [4],1600
same,tumor growth inhibition,[2]; [5],−16%
same,Average tumor volume day 14,[2]; [6],1971.5
same,tumor growth inhibition,[2]; [7],−43%
same,day on which group was sacrificed due to high tumor burden,[2]; compound of formula (IV) single agent groups (2 mg/kg and 8 mg/kg),14 days
same,Average tumor volume day 24,[3]; [4],1449.3
same,tumor growth inhibition,[3]; [5],6%
same,Average tumor volume day 24,[3]; [6],1129.5
same,tumor growth inhibition,[3]; [7],26%
same,day on which group was sacrificed,[3]; two compound of formula (IV) treated groups (Group 2 and 3; 2 mg/kg and 8 mg/kg),27 days
SGN-35,tumor growth inhibition,[1]; SGN-35 0.2 mg/kg IP,3%
same,Average tumor volume day 21,[1]; SGN-35 0.2 mg/kg Q4D IP,1330
same,tumor growth inhibition,[1]; SGN-35 0.4 mg/kg IP,70%
same,Average tumor volume day 21,[1]; SGN-35 0.4 mg/kg Q4D IP,409.9
same,tumor growth inhibition,[1]; SGN-35 0.8 mg/kg IP,100%
same,Average tumor volume day 21,[1]; SGN-35 0.8 mg/kg Q4D IP,0
same,tumors found in mice on day 76,[1]; SGN-35 0.8 mg/kg single agent,No tumors were found in any mice
same,mice tumor free on day 21 post treatment,[1]; SGN-35 0.8 mg/kg single agent (Group 6),7/7
same,tumor growth inhibition,[2]; [8],52%
same,Average tumor volume day 14,[2]; SGN-35 0.2 mg/kg Q4D IP,647.4
same,day on which group was sacrificed,[2]; SGN-35 0.2 mg/kg single agent,25 days
same,tumor growth inhibition,[2]; [9],100%
same,Average tumor volume day 14,[2]; SGN-35 0.4 mg/kg Q4D IP,0
same,mice tumor free at day 14,[2]; SGN-35 0.4 mg/kg single agent,All the mice
same,tumor growth inhibition,[2]; [10],100%
same,Average tumor volume day 14,[2]; SGN-35 0.8 mg/kg Q4D IP,0
same,mice tumor free at day 14,[2]; SGN-35 0.8 mg/kg single agent,All the mice
same,day on which group was sacrificed,[3]; SGN-35 0.2 mg/kg (Group 4),27 days
same,tumor growth inhibition,[3]; [8],12%
same,Average tumor volume day 24,[3]; SGN-35 0.2 mg/kg Q4D IP,1352.3
same,day on which group was sacrificed,[3]; SGN-35 0.4 mg/kg (Group 5),45 days
same,tumor growth inhibition,[3]; [9],50%
same,Average tumor volume day 24,[3]; SGN-35 0.4 mg/kg Q4D IP,774.2
same,day on which group was sacrificed,[3]; SGN-35 0.8 mg/kg (Group 6),59 days
same,tumor growth inhibition,[3]; [10],82%
same,Average tumor volume day 24,[3]; SGN-35 0.8 mg/kg Q4D IP,274.9
